Measurements: US9388164B2, “Methods of using pyruvate kinase activators” (AGIOS PHARMACEUTICALS, INC, priority 2011, dated 2016)

How the values were obtained:
Assay type in all cases: biochemical
PKR R510Q [1] = molecular target: T1, PKR R510Q (Homo sapiens, UniProt P30613, R510Q); assay: PKR R510Q Single Point Percent Activation Assay; details: compound at 1 μM; for activation at 1 µM: read-out: % Act. R510Q
Experimental: PKR R510Q Single Point Percent Activation Assay
(§1) A compound described herein was diluted with DMSO and tested at 1 μM concentration. The enzyme was diluted in 1× Buffer: (100 mM KCl, 50 mM Tris 7.5, 5 mM MgCl2, 1 mM DTT, 0.03% BSA). 2 μL of compound solution was first added into wells, and then 180 μL of enzyme solution was added. Assays were assembled except for ADP, and plates were stored for 60 minutes at RT. 20 μL ADP was added to start the assay and assay output was evaluated using OD340 at SpectraMax. The assay was run at room temperature.
PKR R510Q (40 ng/well), Tris pH 7.5 (50 mM), KCl (100 mM), MgCl2 (5 mM), ADP (0.2 mM), PEP (0.11 mM), NADH (180 μM), LDH (0.5 units, Sigma 59023), DTT (1 mM) and BSA (0.03%).

PKR R532W [2] = molecular target: T2, PKR R532W (Homo sapiens, UniProt P30613, R532W); assay: PKR R532W Single Point Percent Activation Assay; details: compound at 1 μM; for activation at 1 µM: read-out: % Act. R532W
T2 sequence (P30613 whole entry R532W): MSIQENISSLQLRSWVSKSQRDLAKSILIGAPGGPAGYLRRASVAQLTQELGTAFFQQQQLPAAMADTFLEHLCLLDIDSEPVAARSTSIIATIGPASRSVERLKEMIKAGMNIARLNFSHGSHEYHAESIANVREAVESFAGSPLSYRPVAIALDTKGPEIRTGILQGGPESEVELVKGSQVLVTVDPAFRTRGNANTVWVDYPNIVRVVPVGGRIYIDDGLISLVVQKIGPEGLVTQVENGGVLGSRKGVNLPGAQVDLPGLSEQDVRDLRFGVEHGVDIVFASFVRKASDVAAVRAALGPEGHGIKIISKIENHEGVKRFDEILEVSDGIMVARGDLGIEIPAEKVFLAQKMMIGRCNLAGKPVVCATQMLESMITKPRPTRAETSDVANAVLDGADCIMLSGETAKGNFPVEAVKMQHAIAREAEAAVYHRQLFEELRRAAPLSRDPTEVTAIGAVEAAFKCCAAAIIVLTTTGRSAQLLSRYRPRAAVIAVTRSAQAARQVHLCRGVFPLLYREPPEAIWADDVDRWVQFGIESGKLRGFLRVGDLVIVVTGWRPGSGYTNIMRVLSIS
Experimental: PKR R532W Single Point Percent Activation Assay
as §1
PKR R532W (100 ng/well), Tris pH 7.5 (50 mM), KCl (100 mM), MgCl2 (5 mM), ADP (0.36 mM), PEP (0.1 mM), NADH (180 μM), LDH (0.5 units, Sigma 59023), DTT (1 mM) and BSA (0.03%).

PKR T384W [3] = molecular target: T3, PKR T384W (Homo sapiens, UniProt P30613); assay: PKR T384W Single Point Percent Activation Assay; details: compound at 1 μM
T3 sequence (P30613 whole entry T384M): as the sequence (P30613 whole entry R532W) above, with T384M, W532R counted along it
Experimental: PKR T384W Single Point Percent Activation Assay
A compound described herein was diluted with DMSO and tested at 1 μM concentration. The enzyme was diluted in 1× Buffer: (100 mM KCl, 50 mM Tris 7.5, 5 mM MgCl2, 1 mM DTT, 0.03% BSA). 2 μL of compound solution was first added into wells, and then 180 μL enzyme solution was added. Assays were assembled except for ADP, and plates were stored for 60 minutes at RT. 20 μL ADP was added to start the assay and assay output was evaluated using OD340 at SpectraMax. The assay was run at room temperature.
PKR T384W soluble (300 ng/well), Tris pH 7.5 (50 mM), KCl (100 mM), MgCl2 (5 mM), ADP (0.08 mM), PEP (0.23 mM), NADH (180 μM), LDH (0.5 units, Sigma 59023), DTT (1 mM) and BSA (0.03%).

PKR wt = PKR wt (Homo sapiens, UniProt P30613); assay: PKR WT Single Point Percent Activation Assay; details: compound at 1 μM
Chain of PKR wt (P30613 whole entry): as the sequence (P30613 whole entry R532W) above, with W532R counted along it
Experimental: PKR WT Single Point Percent Activation Assay
as §1
PKR wt (100 ng/well), Tris pH 7.5 (50 mM), KCl (100 mM), MgCl2 (5 mM), ADP (0.48 mM), PEP (0.15 mM), NADH (180 μM), LDH (0.5 units, Sigma 59023), DTT (1 mM) and BSA (0.03%).

wild type PKR = wild type PKR (Homo sapiens, UniProt P30613); assay: PKR assay, AC50 (wild type); details: read-out: PKR WT AC50
Chain of wild type PKR (P30613 whole entry): as the sequence (P30613 whole entry R532W) above, with W532R counted along it
Experimental: (§2) • PKR or PKR mutant enzyme solution was diluted in assay buffer. • 2 μL of test compound was added into wells first, and then 180 μL reaction mix was added. • Reactions mixture with test compound was assembled except for ADP, and plates were stored for 60 minutes at room temperature. • 20 uL ADP was added to start reaction at room temperature and reaction progress was measured as changes in absorbance at 340 nm wavelength at room temperature.
(§3) Test Compound Preparation: • Test compound stock was made at 100× concentration in 100% DMSO (10 mM) • 1 to 3 dilutions were made for 11 points (i.e. 50 μl of first concentration added to 100 μl 100% DMSO to yield 3.33 mM, 50 μl of this added to 100 μl DMSO to yield 1.11 mM, and so forth) • 1 to 100 dilution into assay (2 μl in 200 μl) yielded starting concentration of 100 μM, decreasing 3 fold for 11 points.

PKR R510Q [4] = molecular target: T1, PKR R510Q; assay: PKR Mutant Assay, AC50 (R510Q)
Experimental: as §2, §3

PKR R532W [5] = molecular target: T2, PKR R532W; assay: PKR Mutant Assay, AC50 (R532W)
Experimental: as §2, §3

PKR T384W [6] = molecular target: T3, PKR T384W; assay: PKR Mutant Assay, AC50 (T384W)
Experimental: as §2, §3

T1 sequence (P30613 whole entry R510Q): as the sequence (P30613 whole entry R532W) above, with R510Q, W532R counted along it

SMILES | activation at 1 µM (PKR R510Q [1]) | activation at 1 µM (PKR R532W [2]) | % Act. T384W (PKR T384W [3]) | activation at 1 µM (PKR wt) | AC50 (wild type PKR) | also measured
COc1ccccc1OC1CN(C(=O)c2ccc(NS(=O)(=O)c3cccc4cccnc34)c(C)c2)C1 [drawing 63] | 101 to 500% | 101 to 500% | A (a % activation at 1 μM of from 1 to 100) | 101 to 500% | < 100 nM | 
O=C(c1ccc(NS(=O)(=O)c2cccc3cccnc23)cc1)N1CC(OCc2ccccc2)C1 [drawing 12] | 101 to 500% | 101 to 500% | B (a % activation at 1 μM of from 101 to 500) | 101 to 500% | 101 to 500 nM | 
O=C(c1ccc(NS(=O)(=O)c2cccc3cccnc23)cc1)N1CC(O)(c2ccccc2)C1 [drawing 40] | 101 to 500% | 101 to 500% | B (a % activation at 1 μM of from 101 to 500) | 101 to 500% | 101 to 500 nM | 
COc1ccccc1OC1CN(C(=O)c2ccc(NS(=O)(=O)c3cccc4cccnc34)c(C)c2)C1 [drawing 129] |  |  |  |  |  | AC50 (PKR R510Q [4]): > 500 nM; AC50 (PKR R532W [5]): < 100 nM; AC50 (PKR T384W [6]): < 100 nM
O=C(c1ccc(NS(=O)(=O)c2cccc3cccnc23)cc1)N1CC(O)(Cc2ccccc2)C1 [drawing 5] | 101 to 500% | 101 to 500% | B (a % activation at 1 μM of from 101 to 500) | 101 to 500% | < 100 nM | 
O=C(c1ccc(NS(=O)(=O)c2cccc3cccnc23)c(F)c1)N1CC(Nc2ccccc2)C1 [drawing 88] |  |  |  |  |  | AC50 (PKR R510Q [4]): > 500 nM; AC50 (PKR R532W [5]): > 500 nM; AC50 (PKR T384W [6]): > 500 nM
O=C(NC1CN(C(=O)c2ccc(NS(=O)(=O)c3cccc4cccnc34)cc2)C1)c1ccccn1 [drawing 15] |  |  | B (a % activation at 1 μM of from 101 to 500) |  | > 500 nM | % Act. R510Q (PKR R510Q [1]): B (a % activation at 1 μM of from 101 to 500); % Act. R532W (PKR R532W [2]): B (a % activation at 1 μM of from 101 to 500); Act. % WT (PKR wt): B (a % activation at 1 μM of from 101 to 500)
Cc1cc(C(=O)N2CC(Nc3ccccn3)C2)ccc1NS(=O)(=O)c1cccc2cccnc12 [drawing 121] |  |  |  |  |  | AC50 (PKR R510Q [4]): 101 to 500 nM
Cc1cc(C(=O)N2CC(NC(=O)c3ccccn3)C2)ccc1NS(=O)(=O)c1cccc2cccnc12 [drawing 7] | 101 to 500% | 1 to 100% | B (a % activation at 1 μM of from 101 to 500) | 101 to 500% | 101 to 500 nM | 
O=C(Nc1ccccn1)OC1CN(C(=O)c2ccc(NS(=O)(=O)c3cccc4cccnc34)cc2)C1 [drawing 131] |  |  |  |  |  | AC50 (PKR R510Q [4]): > 500 nM
O=C(NC1CN(C(=O)c2ccc(NS(=O)(=O)c3cccc4cccnc34)cc2)C1)c1ccccn1 [drawing 81] |  |  |  |  |  | AC50 (PKR R532W [5]): > 500 nM; AC50 (PKR T384W [6]): > 500 nM
O=C(c1ccc(NS(=O)(=O)c2cccc3cccnc23)c(F)c1)N1CC(Nc2ccccc2)C1 [drawing 22] | 101 to 500% | 101 to 500% | B (a % activation at 1 μM of from 101 to 500) | 101 to 500% | > 500 nM | 
Cc1cc(C(=O)N2CC(Oc3ccccc3)C2)ccc1NS(=O)(=O)c1cccc2cccnc12 [drawing 10] | 101 to 500% | 1 to 100% | A (a % activation at 1 μM of from 1 to 100) | 1 to 100% | < 100 nM | 
O=C(c1ccc(NS(=O)(=O)c2cccc3cccnc23)cc1)N1CC(Oc2ccccc2)C1 [drawing 70] |  |  |  |  |  | AC50 (PKR R510Q [4]): > 500 nM; AC50 (PKR R532W [5]): < 100 nM; AC50 (PKR T384W [6]): 101 to 500 nM
O=C(c1ccc(NS(=O)(=O)c2cccc3cccnc23)cc1)N1CC(Oc2ccccc2)C1 [drawing 4] | 101 to 500% | 101 to 500% | B (a % activation at 1 μM of from 101 to 500) | 101 to 500% | 101 to 500 nM | 
O=C(c1ccc(NS(=O)(=O)c2cccc3cccnc23)cc1)N1CC(OCc2ccccc2)C1 [drawing 78] |  |  |  |  |  | AC50 (PKR R532W [5]): 101 to 500 nM; AC50 (PKR T384W [6]): 101 to 500 nM
CC(C)NC(=O)NC1CN(C(=O)c2ccc(NS(=O)(=O)c3cccc4cccnc34)cc2)C1 | 101 to 500% | 101 to 500% | B (a % activation at 1 μM of from 101 to 500) | 101 to 500% |  | 
COc1cc(NS(=O)(=O)c2cccc3cccnc23)ccc1C(=O)N1CC(OC(=O)Nc2ccccn2)C1 | 101 to 500% | 101 to 500% | B (a % activation at 1 μM of from 101 to 500) | 101 to 500% |  | 
COc1ccccc1N(C)C1CN(C(=O)c2ccc(NS(=O)(=O)c3cccc4cccnc34)cc2)C1 [drawing 32] |  |  | B (a % activation at 1 μM of from 101 to 500) |  |  | % Act. R510Q (PKR R510Q [1]): B (a % activation at 1 μM of from 101 to 500); % Act. R532W (PKR R532W [2]): A (a % activation at 1 μM of from 1 to 100); Act. % WT (PKR wt): B (a % activation at 1 μM of from 101 to 500)
COc1ccccc1NC1CN(C(=O)c2ccc(S(=O)(=O)Nc3cccc4cccnc34)cc2)C1 | 101 to 500% | 101 to 500% | A (a % activation at 1 μM of from 1 to 100) | 101 to 500% |  | 
COc1ccccc1NC1CN(C(=O)c2ccc(NS(=O)(=O)c3cccc4cccnc34)c(F)c2)C1 | 1 to 100% | 1 to 100% | A (a % activation at 1 μM of from 1 to 100) | 1 to 100% |  | 
O=C(NC1CN(C(=O)c2ccc(NS(=O)(=O)c3cccc4cccnc34)c(F)c2)C1)c1ccccn1 | 101 to 500% | 1 to 100% | B (a % activation at 1 μM of from 101 to 500) | 101 to 500% |  | 
Cc1cc(C(=O)N2CC(OCc3ccccc3)C2)ccc1NS(=O)(=O)c1cccc2cccnc12 | 101 to 500% | 1 to 100% | B (a % activation at 1 μM of from 101 to 500) | 101 to 500% |  | 
